The test system of the series is CCRIS mutagenicity, Ames/micronucleus/aberration tests. Kind of series: CCRIS mutagenicity studies.
Where [1] appears, read: Test System: AMES SALMONELLA TYPHIMURIUM, Strain/Indicator: TA98, Metabolic Activation: NONE, Method: PREINCUBATION
Where [2] appears, read: Test System: AMES SALMONELLA TYPHIMURIUM, Strain/Indicator: TA100, Metabolic Activation: NONE, Method: PREINCUBATION
Setting [3] is: Test System: AMES SALMONELLA TYPHIMURIUM, Strain/Indicator: TA1535, Metabolic Activation: NONE, Method: PREINCUBATION
Where [4] appears, read: Test System: AMES SALMONELLA TYPHIMURIUM, Strain/Indicator: TA1537, Metabolic Activation: NONE, Method: PREINCUBATION
Setting [5] is: Test System: E. COLI, Strain/Indicator: WP2 UVRA, Metabolic Activation: NONE, Method: PREINCUBATION

Structures are written as SMILES. Activity calls are given as the source filed them. How the calls were made is not given here.

On to `CC(=O)Nc1ccc2cccnc2c1`, for which the mutagenic call under setting [1] is “inactive; negative”; the mutagenic call (Test System: AMES SALMONELLA TYPHIMURIUM, Strain/Indicator: TA98, Metabolic Activation: RAT, LIVER, S-9, KANECHLOR 500, Method: PREINCUBATION) is “active; positive”; the mutagenic call under setting [2] was “inactive; negative”; the mutagenic call (Test System: AMES SALMONELLA TYPHIMURIUM, Strain/Indicator: TA100, Metabolic Activation: RAT, LIVER, S-9, KANECHLOR 500, Method: PREINCUBATION) is “active; positive”.
For the molecule `CCOC(=O)CC1OCCc2c1[nH]c1c(CC)c(O)ccc21` (stereo not given), the mutagenic call (Test System: AMES SALMONELLA TYPHIMURIUM, Strain/Indicator: TA98, Metabolic Activation: NONE, Method: STANDARD PLATE) was “inactive; negative”; the mutagenic call (Test System: AMES SALMONELLA TYPHIMURIUM, Strain/Indicator: TA98, Metabolic Activation: RAT, LIVER, S-9 (10 OR 50 µL/PLATE), Method: STANDARD PLATE) was “inactive; negative”; the mutagenic call (Test System: AMES SALMONELLA TYPHIMURIUM, Strain/Indicator: TA100, Metabolic Activation: NONE, Method: STANDARD PLATE) was “inactive; negative”; the mutagenic call (Test System: AMES SALMONELLA TYPHIMURIUM, Strain/Indicator: TA100, Metabolic Activation: RAT, LIVER, S-9 (10 OR 50 µL/PLATE), Method: STANDARD PLATE) is “inactive; negative”; the mutagenic call (Test System: AMES SALMONELLA TYPHIMURIUM, Strain/Indicator: TA1535, Metabolic Activation: NONE, Method: STANDARD PLATE) was “active; positive”; the mutagenic call (Test System: AMES SALMONELLA TYPHIMURIUM, Strain/Indicator: TA1535, Metabolic Activation: RAT, LIVER, S-9 (10 OR 50 µL/PLATE), Method: STANDARD PLATE) is “active; positive”. For the same molecule, the mutagenic call by setting is: (Test System: AMES SALMONELLA TYPHIMURIUM, Strain/Indicator: TA1537, Metabolic Activation: NONE, Method: STANDARD PLATE) “inactive; negative”; (Test System: AMES SALMONELLA TYPHIMURIUM, Strain/Indicator: TA1537, Metabolic Activation: RAT, LIVER, S-9 (10 OR 50 µL/PLATE), Method: STANDARD PLATE) “inactive; negative”; (Test System: E. COLI, Strain/Indicator: WP2 UVRA, Metabolic Activation: NONE, Method: STANDARD PLATE) “inactive; negative”; (Test System: E. COLI, Strain/Indicator: WP2 UVRA, Metabolic Activation: RAT, LIVER, S-9 (10 OR 50 µL/PLATE), Method: STANDARD PLATE) “inactive; negative”.
Consider `CCNC(=O)Nc1ccc(OCC(O)CNC(C)(C)C)c(C(C)=O)c1` (stereo not given), for which the mutagenic call runs as follows: under setting [1], “inactive; negative”; (Test System: AMES SALMONELLA TYPHIMURIUM, Strain/Indicator: TA98, Metabolic Activation: RAT, LIVER, S-9, AROCLOR 1254 (10 OR 50 µL/PLATE), Method: PREINCUBATION) “inactive; negative”; under setting [2], “inactive; negative”; (Test System: AMES SALMONELLA TYPHIMURIUM, Strain/Indicator: TA100, Metabolic Activation: RAT, LIVER, S-9, AROCLOR 1254 (10 OR 50 µL/PLATE), Method: PREINCUBATION) “inactive; negative”; under setting [3], “inactive; negative”; (Test System: AMES SALMONELLA TYPHIMURIUM, Strain/Indicator: TA1535, Metabolic Activation: RAT, LIVER, S-9, AROCLOR 1254 (10 OR 50 µL/PLATE), Method: PREINCUBATION) “inactive; negative”. The mutagenic call was “inactive; negative” under setting [4]; “inactive; negative” (Test System: AMES SALMONELLA TYPHIMURIUM, Strain/Indicator: TA1537, Metabolic Activation: RAT, LIVER, S-9, AROCLOR 1254 (10 OR 50 µL/PLATE), Method: PREINCUBATION); “inactive; negative” under setting [5]; “inactive; negative” (Test System: E. COLI, Strain/Indicator: WP2 UVRA, Metabolic Activation: RAT, LIVER, S-9, AROCLOR 1254 (10 OR 50 µL/PLATE), Method: PREINCUBATION).
Take `COc1cc2nc3occc3c(OC)c2cc1OC`: the mutagenic call (Test System: AMES SALMONELLA TYPHIMURIUM, Strain/Indicator: TA98, Metabolic Activation: RAT, LIVER, S-9, PHENOBARBITAL, Method: STANDARD PLATE) was “active; positive” and the mutagenic call (Test System: AMES SALMONELLA TYPHIMURIUM, Strain/Indicator: TA100, Metabolic Activation: RAT, LIVER, S-9, PHENOBARBITAL, Method: STANDARD PLATE) was “active; positive”.
For `O=c1n(Cl)c(=O)n(Cl)c(=O)n1Cl`, the mutagenic call is “inactive; negative” under setting [1]; “inactive; negative” (Test System: AMES SALMONELLA TYPHIMURIUM, Strain/Indicator: TA98, Metabolic Activation: RAT LIVER S-9, PHENOBARBITAL AND BETA-NAPHTHOFLAVONE, Method: PREINCUBATION); “inactive; negative” (Test System: AMES SALMONELLA TYPHIMURIUM, Strain/Indicator: TA98, Metabolic Activation: RAT, LIVER, S-9, KC 500, Method: PREINCUBATION); “inactive; negative” under setting [2]; “inactive; negative” (Test System: AMES SALMONELLA TYPHIMURIUM, Strain/Indicator: TA100, Metabolic Activation: RAT LIVER S-9, PHENOBARBITAL AND BETA-NAPHTHOFLAVONE, Method: PREINCUBATION); “inactive; negative” (Test System: AMES SALMONELLA TYPHIMURIUM, Strain/Indicator: TA100, Metabolic Activation: RAT, LIVER, S-9, KC 500, Method: PREINCUBATION). The mutagenic call was “inactive; negative” under setting [3]; “inactive; negative” (Test System: AMES SALMONELLA TYPHIMURIUM, Strain/Indicator: TA1535, Metabolic Activation: RAT LIVER S-9, PHENOBARBITAL AND BETA-NAPHTHOFLAVONE, Method: PREINCUBATION); “inactive; negative” (Test System: AMES SALMONELLA TYPHIMURIUM, Strain/Indicator: TA1535, Metabolic Activation: RAT, LIVER, S-9, KC 500, Method: PREINCUBATION); “inactive; negative” under setting [4]; “inactive; negative” (Test System: AMES SALMONELLA TYPHIMURIUM, Strain/Indicator: TA1537, Metabolic Activation: RAT LIVER S-9, PHENOBARBITAL AND BETA-NAPHTHOFLAVONE, Method: PREINCUBATION); “inactive; negative” (Test System: AMES SALMONELLA TYPHIMURIUM, Strain/Indicator: TA1537, Metabolic Activation: RAT, LIVER, S-9, KC 500, Method: PREINCUBATION). In addition, the mutagenic call is, setting by setting: (Test System: AMES SALMONELLA TYPHIMURIUM, Strain/Indicator: TA1538, Metabolic Activation: NONE, Method: PREINCUBATION) “inactive; negative”; (Test System: AMES SALMONELLA TYPHIMURIUM, Strain/Indicator: TA1538, Metabolic Activation: RAT LIVER S-9, PHENOBARBITAL AND BETA-NAPHTHOFLAVONE, Method: PREINCUBATION) “inactive; negative”; (Test System: AMES SALMONELLA TYPHIMURIUM, Strain/Indicator: TA1538, Metabolic Activation: RAT, LIVER, S-9, KC 500, Method: PREINCUBATION) “inactive; negative”; under setting [5], “inactive; negative”; (Test System: E. COLI, Strain/Indicator: WP2UVRA, Metabolic Activation: NONE, Method: PREINCUBATION) “inactive; negative”; (Test System: E. COLI, Strain/Indicator: WP2UVRA, Metabolic Activation: RAT LIVER S-9, PHENOBARBITAL AND BETA-NAPHTHOFLAVONE, Method: PREINCUBATION) “inactive; negative”. Also, the mutagenic call (Test System: E. COLI, Strain/Indicator: WP2 UVRA, Metabolic Activation: RAT, LIVER, S-9, KC 500, Method: PREINCUBATION) was “inactive; negative”.

These data come from PubChem BioAssay AID1259407 (Chemical Carcinogenesis Research Information System (CCRIS), 2018).
